Article PMC6930500, “Structure–Activity Relationships of 7-Substituted Dimethyltyrosine-Tetrahydroisoquinoline Opioid Peptidomimetics” (Molecules, 2019)

Columns and labels:
[1] = biological target: T1, human DOR (Homo sapiens, UniProt P41143); assay: [3H]-diprenorphine competitive displacement binding, DOR; conditions: membranes from CHO cells expressing human DOR; mean (SEM), n>=3 in duplicate
T1 construct: expressed in transfected cells; cell lines provided by Professor Lawrence Toll
Protocol: (§1) Each novel compound was evaluated for binding to and stimulation of KOR, MOR, and DOR. Binding affinity (Ki) was determined by competitive displacement of [^3H]-diprenorphine, a non-selective opioid receptor antagonist with similar affinity for each of the three receptors. Potency (EC50) and efficacy, expressed as percent stimulation compared to a standard agonist at each receptor, were determined by a [^35S]-GTPγS binding assay.
(§2) Membranes prepared from transfected Chinese Hamster Ovary cells stably expressing human KOR, human MOR, or human DOR were used for all assays. Cells were grown to confluence at 37 °C in 5% CO2 in 1:1 DMEM:F12 media with 10% v/v fetal bovine serum and 5% v/v penicillin/streptomycin. Membranes were prepared by washing confluent cells three times with ice cold phosphate-buffered saline (0.9% NaCl, 0.61 mM Na2HPO4, 0.38 mM KH2PO4, pH 7.4). Cells were detached from the plates by incubation in warm harvesting buffer (20 mM HEPES, 150 mM NaCl, 0.68 mM EDTA, pH 7.4) and pelleted by centrifugation at 200× g for 3 min. The cell pellet was suspended in ice-cold 50 mM Tris-HCl buffer, pH 7.4 and homogenized with a Tissue Tearor (Biospec Products, Inc, distributed by Cole-Parmer, Vernon Hills, IL, USA) for 20 s at setting 4. The homogenate was centrifuged at 20,000× g for 20 min at 4 °C, and the pellet was rehomogenized in 50 mM Tris-HCl pH 7.4 with a Tissue Tearor for 10 s at setting 2, followed by recentrifugation. The final pellet was resuspended in 50 mM Tris-HCl pH 7.4 and frozen in aliquots at −80 °C. Protein concentration was determined via Pierce BCA protein assay kit using bovine serum albumin as the standard.
(§3) Binding affinities for all test compounds at KOR, MOR, and DOR were determined by competitive displacement of [^3H]-diprenorphine as previously reported. In a 96-well plate format, cell membranes (5–10 µg of protein) and [^3H]-diprenorphine (0.2 nM) were incubated in Tris-HCl buffer (50 mM, pH 7.4) with various concentrations of test compound at 25 °C for 1 h, allowing the mixture to reach equilibrium. Nonspecific binding was determined using the opioid antagonist naloxone (10 µM), and total binding was determined using vehicle in the absence of competitive ligand. After incubation, membranes were filtered through Whatman GF/C 1.2 micron glass fiber filters and washed with 50 mM Tris-HCl buffer. The radioactivity remaining on the filters was then quantified by liquid scintillation counting after saturation with EcoLume liquid scintillation cocktail in a Microbeta 2450 (Perkin-Elmer, Waltham, MA, USA). Binding affinity (Ki) values were calculated using the Cheng–Prusoff equation via nonlinear regression analysis using GraphPad Prism software from at least three separate binding assays performed in duplicate.

[2] = biological target: T2, human KOR (Homo sapiens, UniProt P41145); assay: [3H]-diprenorphine competitive displacement binding, KOR; conditions: for Ki: membranes from CHO cells expressing human KOR, mean (SEM), n>=3 in duplicate; for selectivity for MOR and DOR over KOR: binding selectivity
T2 construct: expressed in transfected cells; cell lines provided by Professor Lawrence Toll
Protocol: as §1, §2, §3

[3] = biological target: T2, human KOR; assay: [35S]-GTPγS binding stimulation, KOR; assay type: biochemical; conditions: mean (SEM); for EC50 / EC50 KOR: CHO-human KOR membranes, * n = 2, dns = does not stimulate, average maximal stimulation <10% at up to 10 µM; for Emax / % Stimulation KOR: versus 10 µM standard agonist U69,593, dns = average maximal stimulation <10% at up to 10 µM
Protocol: as §1, §2
(§4) Agonist stimulation of KOR, MOR, and DOR by all test compounds was determined by [^35S]-guanosine 5′-O-[γ-thio]triphosphate ([^35S]-GTPγS) binding assays as previously reported. In a 96-well plate format, membranes from cells expressing opioid receptors as described above (10 µg of protein), [^35S]-GTPγS (0.1 nM), and guanosine diphosphate (30 µM) were incubated in GTPγS buffer (50 mM Tris-HCl, 100 mM NaCl, 5 mM MgCl2, 1 mM EDTA, pH 7.4) with various concentrations of test compound at 25 °C for 1 h. Basal stimulation was determined by incubation in the absence of any ligand. After incubation, membranes were filtered through Whatman GF/C 1.2 micron glass fiber filters and washed with GTPγS buffer with no EDTA. The radioactivity remaining on the filters was then quantified by liquid scintillation counting after saturation with EcoLume liquid scintillation cocktail in a Perkin-Elmer Microbeta 2450. Data are reported as percent stimulation compared to the effects of 10 µM standard agonists—U69,593 (KOR), DAMGO (MOR), or DPDPE (DOR). Percent stimulation and EC50 values were determined via nonlinear regression analysis using GraphPad Prism software from at least three separate assays performed in duplicate. Efficacy is expressed as percent stimulation relative to standard agonists.

[4] = biological target: T3, human MOR (Homo sapiens, UniProt P35372); assay: [3H]-diprenorphine competitive displacement binding, MOR; conditions: for Ki: membranes from CHO cells expressing human MOR, mean (SEM), n>=3 in duplicate
T3 construct: expressed in transfected cells; cell lines provided by Professor Lawrence Toll
Protocol: as §1, §2, §3

[5] = biological target: T1, human DOR; assay: [35S]-GTPγS binding stimulation, DOR; assay type: biochemical; conditions: mean (SEM), * n = 2; for EC50 DOR / EC50: CHO-human DOR membranes, dns = does not stimulate, average maximal stimulation <10% at up to 10 µM; for % Stimulation DOR: versus 10 µM standard agonist DPDPE, dns = average maximal stimulation <10% at up to 10 µM
Protocol: as §1, §2, §4

[6] = biological target: T3, human MOR; assay: [35S]-GTPγS binding stimulation, MOR; assay type: biochemical; conditions: mean (SEM), * n = 2; for EC50: CHO-human MOR membranes, dns = does not stimulate, average maximal stimulation <10% at up to 10 µM; for Emax: versus 10 µM standard agonist DAMGO, dns = average maximal stimulation <10% at up to 10 µM
Protocol: as §1, §2, §4

Structure (SMILES) | Ki [1] | Ki [2] | EC50 [3] | Emax [3] | Ki [4] | EC50 DOR [5] | % Stimulation DOR [5] | EC50 [6] | Emax [6] | EC50 [5] | selectivity for MOR and DOR over KOR [2] | EC50 KOR [3] | % Stimulation KOR [3] | higher affinity for KOR than for DOR ([2]; ratio of Ki values) | higher affinity for MOR than for DOR ([4]; ratio of Ki values)
COc1cccc(Cc2ccc3c(c2)CN(C(=O)[C@@H](N)Cc2c(C)cc(O)cc2C)CC3)c1 [Compound 8e, (S)-2-amino-3-(4-hydroxy-2,6-dimethylphenyl)-1-(7-(3-methoxybenzyl)-3,4-dihydroisoquinolin-2(1H)-yl)propan-1-one] | 1.7 nM | 3 nM | 148 nM | 74% | 2.7 nM | dns | dns | 24 nM | 48% | – | – | – | – | – | –
Cc1cc(O)cc(C)c1C[C@H](N)C(=O)N1CCc2ccc(Cc3cccnc3)cc2C1 [Compound 8j, (S)-2-amino-3-(4-hydroxy-2,6-dimethylphenyl)-1-(7-(pyridin-3-ylmethyl)-3,4-dihydroisoquinolin-2(1H)-yl)propan-1-one] | 1.5 nM | 56 nM | 988 nM | 40% | 5.4 nM | dns | dns | 145 nM | 23% | – | – | – | – | – | –
Cc1cc(O)cc(C)c1C[C@H](N)C(=O)N1CCc2ccc(Cc3cccc4cccnc34)cc2C1 [Compound 8q, (S)-2-amino-3-(4-hydroxy-2,6-dimethylphenyl)-1-(7-(quinolin-8-ylmethyl)-3,4-dihydroisoquinolin-2(1H)-yl)propan-1-one] | 0.46 nM | 19 nM | 258 nM | 25% | 1.4 nM | – | 23 (4) % | 24 nM | 63% | 1.2 nM | – | – | – | – | –
Cc1cc(O)cc(C)c1C[C@H](N)C(=O)N1CCc2ccc(Cc3cccc(O)c3)cc2C1 [Compound 8f, (S)-2-amino-3-(4-hydroxy-2,6-dimethylphenyl)-1-(7-(3-hydroxybenzyl)-3,4-dihydroisoquinolin-2(1H)-yl)propan-1-one] | 1.4 nM | 0.8 nM | 148 nM | 83% | 0.6 nM | dns * | dns * | 18 nM | 81% | – | – | – | – | – | –
Cc1cc(O)cc(C)c1C[C@H](N)C(=O)N1CCc2ccc(CN3CCCc4ccccc43)cc2C1 [Compound 8x, (S)-2-amino-1-(7-((3,4-dihydroquinolin-1(2H)-yl)methyl)-3,4-dihydroisoquinolin-2(1H)-yl)-3-(4-hydroxy-2,6-dimethylphenyl)propan-1-one] | 6.6 nM | 7.1 nM | 375 nM | 67% | 7.2 nM | dns * | dns * | 73 nM | 65% | – | – | – | – | – | –
Cc1cc(O)cc(C)c1C[C@H](N)C(=O)N1CCc2ccc(CN3CCc4ccccc4C3)cc2C1 [Compound 8w, (S)-2-amino-1-(7-((3,4-dihydroisoquinolin-2(1H)-yl)methyl)-3,4-dihydroisoquinolin-2(1H)-yl)-3-(4-hydroxy-2,6-dimethylphenyl)propan-1-one] | 2.3 nM | 42 nM | – | – | 0.6 nM | dns * | dns * | 8.2 nM | 85% | – | 18 fold | dns | dns | – | –
Cc1cc(O)cc(C)c1C[C@H](N)C(=O)N1CCc2ccc(CN3Cc4ccccc4C3)cc2C1 [Compound 8z, (S)-2-amino-3-(4-hydroxy-2,6-dimethylphenyl)-1-(7-(isoindolin-2-ylmethyl)-3,4-dihydroisoquinolin-2(1H)-yl)propan-1-one] | 1.3 nM | 65 nM | – | – | 1.5 nM | dns * | dns * | 27 nM | 63% | – | 43 fold | dns | dns | – | –
Cc1cc(O)cc(C)c1C[C@H](N)C(=O)N1CCc2ccc(Cc3ccc4ccccc4c3)cc2C1 [Compound 8p, (S)-2-amino-3-(4-hydroxy-2,6-dimethylphenyl)-1-(7-(naphthalen-2-ylmethyl)-3,4-dihydroisoquinolin-2(1H)-yl)propan-1-one] | 3.5 nM | 142 nM | – | – | 5.8 nM | dns | dns | 176 nM | 51% | – | – | dns | dns | – | –
Cc1cc(O)cc(C)c1C[C@H](N)C(=O)N1CCc2ccc(Cc3ccccc3C(F)(F)F)cc2C1 [Compound 8c, (S)-2-amino-3-(4-hydroxy-2,6-dimethylphenyl)-1-(7-(2-(trifluoromethyl)benzyl)-3,4-dihydroisoquinolin-2(1H)-yl)propan-1-one] | 4.9 nM | 2.6 nM | 173 nM | 81% | 4.3 nM | – | 24 (3) % | 53 nM | 76% | 342 nM | – | – | – | – | –
Cc1cccc(Cc2ccc3c(c2)CN(C(=O)[C@@H](N)Cc2c(C)cc(O)cc2C)CC3)c1C [Compound 8i, (S)-2-amino-1-(7-(2,3-dimethylbenzyl)-3,4-dihydroisoquinolin-2(1H)-yl)-3-(4-hydroxy-2,6-dimethylphenyl)propan-1-one] | 3.6 nM | 5.8 nM | 1030 nM | 54% | 5.2 nM | dns * | dns * | 380 nM | 34% | – | – | – | – | – | –
Cc1cc(O)cc(C)c1C[C@H](N)C(=O)N1CCc2ccc(Cc3ccccc3O)cc2C1 [Compound 8b, (S)-2-amino-3-(4-hydroxy-2,6-dimethylphenyl)-1-(7-(2-hydroxybenzyl)-3,4-dihydroisoquinolin-2(1H)-yl)propan-1-one] | 2.5 nM | 0.32 nM | 11 nM | 89% | 1.2 nM | dns * | dns * | 43 nM | 60% | – | – | – | – | eight-fold | two-fold
